Results reported in paper PMC4126345, “Large-scale filament formation inhibits the activity of CTP synthetase” (eLife, 2014).

Experiments:
CTP synthetase (CtpS) [1] = target: T1, CTP synthetase (CtpS) (Escherichia coli, UniProt P0A7E5); assay: CTP production (transmittance at […] nm) and light scattering of purified CtpS with DON; type: biochemical
T1 construct: gene pyrG; full-length

CTP synthetase (CtpS) [2] = target: T1, CTP synthetase (CtpS); assay: cryo-EM difference density in the CtpS filament ([…] Å); type: binding
CTP synthetase (CtpS) [3] = target: T1, CTP synthetase (CtpS); assay: purified enzyme turnover; ATP with UTP depolymerizes and reactivates CtpS (light scattering and activity); type: biochemical
[4] = target: T2, CTP synthetase (CtpS E277R) (Escherichia coli, UniProt P0A7E5, E277R); assay: CTP inhibition of CTP synthesis by purified enzyme (absorbance at […] nm), […] enzyme; type: biochemical
T2 construct: gene pyrG; full-length, 6XHis tag not cleaved

CTP synthetase (CtpS) [5] = target: T1, CTP synthetase (CtpS); assay: purified enzyme turnover to CTP; UTP with ATP depolymerizes and reactivates CtpS (light scattering and activity); type: biochemical
CTP synthetase (CtpS) [6] = target: T1, CTP synthetase (CtpS); assay: CTP production by purified enzyme initiated by glutamine; type: biochemical

T1 sequence (P0A7E5 2-545): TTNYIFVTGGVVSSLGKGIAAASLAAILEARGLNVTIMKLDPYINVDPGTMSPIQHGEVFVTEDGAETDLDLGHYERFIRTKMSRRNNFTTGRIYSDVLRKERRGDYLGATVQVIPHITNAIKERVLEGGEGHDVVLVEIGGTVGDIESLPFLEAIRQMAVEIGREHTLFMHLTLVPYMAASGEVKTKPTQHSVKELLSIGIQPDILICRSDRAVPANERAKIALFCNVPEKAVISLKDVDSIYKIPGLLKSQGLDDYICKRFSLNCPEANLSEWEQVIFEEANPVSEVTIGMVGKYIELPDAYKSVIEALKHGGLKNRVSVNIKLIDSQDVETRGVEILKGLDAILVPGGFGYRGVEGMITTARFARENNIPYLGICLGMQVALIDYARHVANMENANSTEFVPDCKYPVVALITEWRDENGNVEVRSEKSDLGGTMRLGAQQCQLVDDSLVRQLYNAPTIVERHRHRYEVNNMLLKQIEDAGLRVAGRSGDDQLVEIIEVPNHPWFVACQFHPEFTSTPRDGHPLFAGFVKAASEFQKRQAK
T2 sequence (P0A7E5 2-545 E277R): as the sequence (P0A7E5 2-545) above, with E276R counted along it

For [N-]=[N+]=CC(=O)CC[C@H](N)C(=O)O [6-Diazo-5-oxo-L-norleucine], the “CTP production (transmittance at 291 nm) and light scattering of purified CtpS w” value (CTP synthetase (CtpS) [1]) was “When added to activity buffer, DON abolishes both CTP production and CtpS polymerization”.

In the case of Nc1ncnc2c1ncn2[C@@H]1O[C@H](COP(=O)(O)OP(=O)(O)O)[C@@H](O)[C@H]1O [ADP], the “cryo-EM difference density in the CtpS filament (8.4 Å)” value (CTP synthetase (CtpS) [2]) is reported as “Similarly strong density is found in the difference map in the positions of bound ADP”.

For Nc1ncnc2c1ncn2[C@@H]1O[C@H](COP(=O)(O)OP(=O)(O)OP(=O)(O)O)[C@@H](O)[C@H]1O [ATP], the “purified enzyme turnover; ATP with UTP depolymerizes and reactivates CtpS (light)” value (CTP synthetase (CtpS) [3]) was “Addition of ATP and UTP depolymerized the sample”.

Nc1ccn([C@@H]2O[C@H](COP(=O)(O)OP(=O)(O)OP(=O)(O)O)[C@@H](O)[C@H]2O)c(=O)n1 [CTP] showed an IC50 [4] of 833 µM.

For O=c1ccn([C@@H]2O[C@H](CO[P@@](=O)(O)O[P@@](=O)(O)OP(=O)(O)O)[C@@H](O)[C@H]2O)c(=O)[nH]1 [UTP], the “purified enzyme turnover to CTP; UTP with ATP depolymerizes and reactivates CtpS” value (CTP synthetase (CtpS) [5]) was “Upon addition of these substrate nucleotides, we observed a sharp decrease in light scattering”.

For NC(=O)CC[C@H](N)C(=O)O [glutamine], the “CTP production by purified enzyme initiated by glutamine” value (CTP synthetase (CtpS) [6]) was “CTP production was then initiated by the addition of glutamine to form a complete activity buffer”.
